Measured values taken from the NIST ThermoML archive (doi:10.1021/acs.jced.7b00898).

Key:
[1] = xn = mol fraction of the nth substance listed; details: 100 kPa, Liquid, Vibrating tube method, x2 = 0
[2] = for surface tension liquid-gas: pt plate; for electrical conductivity / viscosity / mass density: 100 kPa, Liquid; for electrical conductivity: Alternating current cell with electrodes; for viscosity: Falling or rolling sphere viscometry; for mass density: Vibrating tube method

CC#N [acetonitrile] + C[n+]1ccn(CCCC#N)c1.F[B-](F)(F)F
[1]
Details	mass density [kg/m3]
288.15 K	787.33
293.15 K	781.96
298.15 K	776.61
303.15 K	771.18
308.15 K	765.73
313.15 K	760.25
318.15 K	754.72
323.15 K	749.16

C[n+]1ccn(CCCC#N)c1.F[B-](F)(F)F [1-butyronitrile-3-methylimidazolium tetrafluoroborate]
[2]
Details	electrical conductivity [S/m]	mass density [kg/m3]	surface tension liquid-gas [mN/m]	viscosity [mPa·s]
288.15 K	0.058	1316.07	49.1	590.6
293.15 K	0.085	1312.33	48.7	417.9
298.15 K	0.123	1308.61	48.4	302.6
303.15 K	0.171	1304.81	48.1	223.3
308.15 K	0.231	1301.05	47.7	169.9
313.15 K	0.305	1297.32	47.4	128.7
318.15 K	0.393	1293.59	47.1	100.6
323.15 K	0.498	1289.86	46.8	79.82

CC#N [acetonitrile]
[2]
Details	mass density [kg/m3]
288.15 K	787.33
293.15 K	781.96
298.15 K	776.61
303.15 K	771.18
308.15 K	765.73
313.15 K	760.25
318.15 K	754.72
323.15 K	749.16
